Assays:
[1] = Solubility of fluorosurfactants in perflubron; conditions: PDFOA at 25° C.
[2] = Pseudo-phase diagram fluorosurfactant screen: ethanol incorporation in E/F microemulsions; type: physicochemical; conditions: maximum ethanol in stable clear E/F microemulsion
Protocol: Pseudo-Phase Diagrams: Fluorosurfactant Screen. Studies focused on E/F microemulsions that allowed for maximum solubilization of ethanol. […] Briefly, a small amount of ethanol was added to defined perflubron (X %)/(fluorosurfactant) (100-X %) mixtures in an attempt to solubilize ethanol and define the microemulsion window (i.e., portion of diagram that represents a clear system). […] While the mixture was stirring, ethanol was added in 5 μL (=[…] ethanol) aliquots. The clarity (transparency) of the systems as a function of the percentages of the three phases was plotted in order to define the microemulsion window, if any. This screen was repeated for each of the fluorosurfactant candidates.

[3] = Droplet and particle size by photon correlation spectroscopy; type: physicochemical
Protocol: Modeling of E/F microemulsions: An ethanol-in-fluorocarbon(E/F) microemulsion was made having the following components: perflubron (0.7382 g), PDFOA (0.3195 g), and ethanol (0.3603 g). The weight of ethanol corresponded to 25.4% w/w of the final microemulsionor 65.7% of the microemulsion window (see FIG. 2). The average droplet size of 34.9 nm determined by photon correlation spectroscopy (dynamic light scattering at 11.3° for 300 seconds) agreed very well with the predicted ethanol droplet size based on simple mathematical modeling of surfactant-coated ethanol droplets. The total surface area of ethanol droplets that have an average diameter of 34.9 nm can be calculated in a series of equations as follows: Volume of one ethanol droplet=πd^3/6=2.226×10^−17 cm^3 (Equation 1) Total number of ethanol droplets=(0.3603 g[…])/[…]=1.989×10^16 droplets (Equation 2) Total surface area of each droplet=πd^2=3.827×10^−11 cm^2 (Equation 3) Total surface area of all ethanol droplets=1.989×10^16 droplets*3.827×10^−11 cm^2=760966 cm^2. (Equation 4) If we assume that PDFOA head-group (Mw 414.06 g/mol) occupies a space of 30 Å^2, then we can calculate the number of PDFOA molecules needed to cover the total surface area of all ethanol droplets from Equation 4 as: Total number of PDFOA molecules needed to cover the total surface area of all ethanol droplets=760966 cm^2/30×10^−16 cm^2=2.537×10^20 molecules of PDFOA. (Equation 5) Thus, 2.537×10^20 molecules of PDFOA would theoretically be needed to coat all of the surface area provided by all of the ethanol droplets. The ratio of ethanol to PDFOA molecules 65.7% through the microemulsion window was 10:1. […] The actual amount of PDFOA used to prepare the microemulsion was 0.3195 g which was within 3% of the predicted amount (0.3195 g/0.3282 g=0.973 or 97.3%) based on the measured droplet size of ethanol. Thus, this simple modeling supports the formation of a E/F microemulsion as well as the particle sizing method used.
To determine the existence of an oil-in-water microemulsion window for the microemulsion precursor, exactly two (2) milligrams of emulsifying wax were weighed accurately into ten separate 7-mL glass vials and melted at 50° C. on a temperature calibrated magnetic hot plate. Water (0.2 μm filtered) was then added (750–1000 μL) to form a homogeneous milky slurry in the stirring water at 50° C. To form the microemulsion precursor, the surfactant polyoxy 20 stearyl ether (100 mM) in water was added (0–250 μL) so that the final surfactant concentration ranged from 0 mM to 25 mM in the ten vials. The microemulsion precursor was then removed from heat (52–54° C.) and allowed to cool to 25° C. while stirring. […] Thus, an apparent microemulsion window was defined. One hundred (100) μL of each cooled system was taken and diluted with 900 μL water. The particle size of the diluted solid nanoparticles was determined using a Coulter N4 Plus Sub-Micron Particle Sizer at 20° C. by scattering light at 90° for 120 seconds. The particle sizes of systems with no surfactant added could not be determined since the systems contained precipitates that were greater than 3000 nm in diameter. […] To determine if the measured droplet sizes in either the microemulsion nanotemplate or the cured solid nanoparticles were due to the presence of surfactant micelles, samples were made as described above with no emulsifying wax and with final surfactant concentrations ranging from 0 mM to 100 mM in water. […] It is likely that the relatively heterogeneous nature of the polymeric surfactant makes the determination of its CMC difficult using conventional techniques. Photon correlation spectroscopy, using a Coulter N4 Plus Submicron Particle Sizer, was used to determine the existence and the size of the surfactant micelles.
Preparation of cationic nanoparticles made from microemulsion precursors: Exactly 2 mg of emulsifying wax was placed into six 7-ml glass scintillation vials. […]

Compound | Solubility in perflubron [1] | Final (Ethanol) % w/w Solubilized in Perflubron/Fluorosurfactant (70/3 w/w) [2] | further results
O=C(O)C(F)(F)C(F)(F)C(F)(F)C(F)(F)C(F)(F)C(F)(F)C(F)(F)F [PDFOA, Pentadecafluorooctanoicacid] | did not dissolve | up to 37.2 % w/w | Final (Ethanol) % w/w Solubilized in Perflubron/Fluorosurfactant (70/3 w/w) ([2]; listed as Pentadecafluorooctanoicacid (PDFOA)): 37.2 % w/w
O=C(O)C(F)(F)C(F)(F)C(F)(F)C(F)(F)C(F)(F)C(F)(F)F [D5, Tridecafluoroheptanoicacid] | soluble | – | –
COC(=O)C(F)(F)C(F)(F)C(F)(F)C(F)(F)C(F)(F)C(F)(F)C(F)(F)F [D8, Pentadecafluoromethyloctanoate] | soluble | – | –
ASF-pal: asialofetuin derivatized with about 12 palmitate arms per molecule, hepatocyte-specific ligand | – | – | Size of micelles formed alone in water ([3]; 67 μg/mL): 3–15 nm; Size of larger aggregates formed alone in water ([3]; 1340 μg/mL): 40–300 nm; Size of micelles formed alone in water ([3]; 1340 μg/mL): 3–10 nm; Effect of adding ASF-pal on particle size of cured nanoparticles ([3]; ASF-pal added to 200 μg nanoparticles per mL, 1 hour at 25° C.): only a small effect
O=C(O)C(F)(F)C(F)(F)C(F)(F)C(F)(F)C(F)(F)C(F)(F)C(F)(F)C(F)(F)C(F)(F)C(F)(F)C(F)(F)C(F)(F)C(F)(F)F [Perfluorotetradecanoicacid (D6), Perfluorotetradecanoicacid] | – | 66.6 % w/w | –
O=C(O)C(F)(F)C(F)(F)C(F)(F)C(F)(F)C(F)(F)C(F)(F)C(F)(F)C(F)(F)C(F)(F)C(F)(F)C(F)(F)F [Perfluorododecanoicacid (D7), Perfluorododecanoicacid] | – | 59.2 % w/w | –
CC(=O)C=C(C)[O-].CC(=O)C=C(C)[O-].CC(=O)C=C(C)[O-].[Gd+3] [GdAcAc, Gadolinium acetylacetonate] | – | – | Effect of GdAcAc entrapment on particle sizes of cured nanoparticles ([3]; 0.1 mg to 1 mg in emulsifying wax and Brij 72 nanoparticles (2 mg/mL)): little or no effect; Particle size of cured nanoparticles ([3]; cooled to 25° C.): about 50 nm
OCCC(F)(F)C(F)(F)C(F)(F)C(F)(F)C(F)(F)C(F)(F)F [D3, Tridecafluoro-1-octanol] | soluble | – | –

— patent US7153525B1, “Microemulsions as precursors to solid nanoparticles” (The University of Kentucky Research Foundation, priority 2000, dated 2006)
